Assay results reported in patent US11578079B2, “SUMO inhibitor compounds and uses thereof” (CITY OF HOPE, priority 2018, dated 2023).

Molecular target: T1, SUMO (Homo sapiens, UniProt Q9UBT2)
T1 sequence (Q9UBT2 1-640): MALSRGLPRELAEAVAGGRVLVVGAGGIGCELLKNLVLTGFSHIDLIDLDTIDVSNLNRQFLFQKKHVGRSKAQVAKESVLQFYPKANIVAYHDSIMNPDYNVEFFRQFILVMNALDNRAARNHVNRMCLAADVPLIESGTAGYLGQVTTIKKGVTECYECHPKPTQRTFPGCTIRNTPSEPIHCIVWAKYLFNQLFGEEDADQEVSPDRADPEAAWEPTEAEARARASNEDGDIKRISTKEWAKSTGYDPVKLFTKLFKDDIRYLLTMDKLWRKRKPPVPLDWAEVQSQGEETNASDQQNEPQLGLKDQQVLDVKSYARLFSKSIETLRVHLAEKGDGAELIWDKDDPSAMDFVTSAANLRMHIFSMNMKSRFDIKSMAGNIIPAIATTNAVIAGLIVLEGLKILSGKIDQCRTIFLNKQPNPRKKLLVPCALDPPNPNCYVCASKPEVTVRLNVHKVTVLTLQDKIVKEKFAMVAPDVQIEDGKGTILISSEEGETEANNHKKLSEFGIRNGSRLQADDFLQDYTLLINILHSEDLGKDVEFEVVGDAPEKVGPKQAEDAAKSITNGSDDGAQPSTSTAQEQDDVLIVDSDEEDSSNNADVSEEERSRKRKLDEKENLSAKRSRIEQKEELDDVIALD
T1 sequence (Q9UBE0 1-346 partner): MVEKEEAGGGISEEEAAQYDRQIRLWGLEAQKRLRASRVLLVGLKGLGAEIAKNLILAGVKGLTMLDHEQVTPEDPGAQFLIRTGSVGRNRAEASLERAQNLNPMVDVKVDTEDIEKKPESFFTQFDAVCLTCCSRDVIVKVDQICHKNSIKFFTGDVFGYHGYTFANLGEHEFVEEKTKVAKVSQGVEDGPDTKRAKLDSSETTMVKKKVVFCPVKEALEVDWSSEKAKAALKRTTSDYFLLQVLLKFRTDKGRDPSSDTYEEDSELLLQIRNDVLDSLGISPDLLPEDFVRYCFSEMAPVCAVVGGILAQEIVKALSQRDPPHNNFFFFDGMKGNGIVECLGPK
Assay: SUMO activity (Table I, biological activities)
Type: biochemical
Set-up: key: + (less active); ++ (active); +++ (most active)

SMILES | SUMO
CCCNC(=O)C1=C(C(=O)OC)C2(C(Cc3ccccc3)Nc3ccccc3)C=CC1O2 (stereo not drawn) [Compound 150] | ++
COC(=O)C1=C(C(=O)NCCO)C2C=CC1(C(Cc1ccccc1)Nc1ccccc1)O2 (stereo not drawn) [Compound 152] | ++
COC(=O)C1=C(C(=O)NC(C)C)C2C=CC1(C(Cc1ccccc1)Nc1ccccc1)O2 (stereo not drawn) [Compound 153] | ++
COC(=O)C1=C(C(=O)N(C)C)C2C=CC1(C(Cc1ccccc1)Nc1ccccc1)O2 (stereo not drawn) [Compound 154] | +
C#CCNC(=O)C1=C(C(=O)OC)C2(C(Cc3ccccc3)Nc3ccccc3)C=CC1O2 (stereo not drawn) [Compound 155] | ++
CCCNC(=O)C1=C(C(=O)NCCC)C2(C(Cc3ccccc3)Nc3ccccc3)C=CC1O2 (stereo not drawn) [Compound 157] | +
CC(C)NC(=O)C1=C(C(=O)NC(C)C)C2(C(Cc3ccccc3)Nc3ccccc3)C=CC1O2 (stereo not drawn) [Compound 159] | +
COC(=O)C1=C(C(=O)N2CCN(C)CC2)C2C=CC1(C(Cc1ccccc1)Nc1ccccc1)O2 (stereo not drawn) [Compound 164] | +
O=C(O)C1=C(C(=O)Nc2ccccc2)C2C=CC1(C(Cc1ccccc1)Nc1ccccc1)O2 (stereo not drawn) [Compound 174] | +
COc1ccc(NC(=O)C2=C(C(=O)O)C3(C(Cc4ccccc4)Nc4ccccc4)C=CC2O3)cc1 (stereo not drawn) [Compound 175] | +
C=CC(C)(C)C(Nc1ccccc1)C12C=CC(O1)C(C(=O)OC)=C2C(=O)OC (stereo not drawn) [Compound 188] | ++
COC(=O)C1=C(C(=O)OC)C2(C(Nc3ccccc3)C3CCOCC3)C=CC1O2 (stereo not drawn) [Compound 192] | ++
COC(=O)C1=C(C(=O)OC)C2(C(CCCN3CCOCC3)Nc3ccccc3)C=CC1O2 (stereo not drawn) [Compound 193] | +
COC(=O)C1=C(C(=O)Nc2ccc(OC)cc2)C2C=CC1(C(Cc1ccccc1)Nc1ccccc1)O2 (stereo not drawn) [Compound 194] | ++
COC(=O)C1=C(C(=O)Nc2ccc(OC(F)(F)F)cc2)C2C=CC1(C(Cc1ccccc1)Nc1ccccc1)O2 (stereo not drawn) [Compound 196] | +
COC(=O)C1=C(C(=O)Nc2ccn(C)n2)C2C=CC1(C(Cc1ccccc1)Nc1ccccc1)O2 (stereo not drawn) [Compound 197] | ++
COC(=O)C1=C(C(=O)NC2CCN(C(=O)OC(C)(C)C)CC2)C2C=CC1(C(Cc1ccccc1)Nc1ccccc1)O2 (stereo not drawn) [Compound 198] | +
COC(=O)C1=C(C(=O)Nc2ccc(OC)nc2)C2C=CC1(C(Cc1ccccc1)Nc1ccccc1)O2 (stereo not drawn) [Compound 199] | ++
NC(=O)C1=C(C(N)=O)C2(C(Cc3ccccc3)Nc3ccccc3)C=CC1O2 (stereo not drawn) [Compound 202] | +
COC(=O)C1=C(C(=O)O)C2C=CC1(C(Cc1ccccc1)Nc1cc(F)cc(F)c1)O2 (stereo not drawn) [Compound 203] | ++
COC(=O)C1=C(C(=O)Nc2ccncc2)C2C=CC1(C(Cc1ccccc1)Nc1cc(F)cc(F)c1)O2 (stereo not drawn) [Compound 206] | +

SMILES | SUMO
COC(=O)C1=C(C(N)=O)C2C=CC1(C(Cc1ccccc1)Nc1cc(F)cc(F)c1)O2 (stereo not drawn) [Compound 207] | +
CCCCC(Nc1ccccc1)C12C=CC(O1)C(C(=O)OC)=C2C(=O)OC (stereo not drawn) [Compound 210] | +++
COC(=O)C1=C(C(=O)NCCN2CCOCC2)C2C=CC1(C(Cc1ccccc1)Nc1ccccc1)O2 (stereo not drawn) [Compound 222] | +++
COC(=O)C1=C(C(=O)OC)C2(C(Cc3ccccc3)Nc3c(F)cccc3F)C=CC1O2 (stereo not drawn) [Compound 228] | ++
CCOC(=O)C1=C(C(=O)OCC)C2(C(Cc3ccccc3)Nc3c(F)cccc3F)C=CC1O2 (stereo not drawn) [Compound 230] | ++
CCOC(=O)C1=C(C(=O)OCC)C2(C(Cc3ccccc3)Nc3ccccc3)C=CC1O2 (stereo not drawn) [Compound 232] | +++
CCOC(=O)C1=C(C(=O)OCC)C2(C(Cc3ccccc3)Nc3cc(F)cc(F)c3)C=CC1O2 (stereo not drawn) [Compound 234] | ++
COC(=O)C1=C(C(=O)OC)C2(C(Cc3ccccc3)N(C)c3ccccc3)C=CC1O2 (stereo not drawn) [Compound 236] | ++
COC(=O)C1=C(C(=O)OC)C2(C(Cc3ccccc3)N(C)c3c(F)cccc3F)C=CC1O2 (stereo not drawn) [Compound 237] | +
COC(=O)C1=C(C(=O)NCCCCCNC(=O)OCC2c3ccccc3-c3ccccc32)C2C=CC1(C(Cc1ccccc1)Nc1cc(F)cc(F)c1)O2 (stereo not drawn) [Compound 244] | +
CCOc1cccc(NC(Cc2ccccc2)C23C=CC(O2)C(C(=O)O)=C3C(=O)OC)c1 (stereo not drawn) [Compound 246] | +
CCOc1cccc(NC(Cc2ccccc2)C23C=CC(O2)C(C(=O)NC)=C3C(=O)OC)c1 (stereo not drawn) [Compound 250] | ++
COC(=O)C1=C(C(=O)NC2CCN(C(=O)OC(C)(C)C)CC2)C2C=CC1(C(Cc1ccccc1)Nc1cc(F)cc(F)c1)O2 (stereo not drawn) [Compound 255] | +
COC(=O)C1=C(C(=O)OC)C2(C(Cc3ccccc3)Nc3ccccc3)C=CC1(C)O2 (stereo not drawn) [Compound 259] | ++
CCOC(=O)C1=C(C(=O)OCC)C2(C(Cc3ccccc3)Nc3ccccc3)C=CC1(CO)O2 (stereo not drawn) [Compound 265] | ++
COC(=O)C1=C(C(=O)NC2CCN(C)CC2)C2(C)C=CC1(C(Cc1ccccc1)Nc1ccccc1)O2 (stereo not drawn) [Compound 268] | +
CCOC(=O)C1=C(C(=O)NC2CCN(C)CC2)C2(CO)C=CC1(C(Cc1ccccc1)Nc1ccccc1)O2 (stereo not drawn) [Compound 269] | ++
COC(=O)C1=C(C(=O)OC)C2(C(Cc3ccccc3)Nc3ccccc3F)C=CC1O2 (stereo not drawn) [Compound 270] | ++
COC(=O)C1=C(C(=O)OC)C2(C(Cc3ccccc3)Oc3ccccc3)C=CC1O2 (stereo not drawn) [Compound 271] | ++
COC(=O)C1=C(C(=O)OC)C2(C(Cc3ccccc3)Nc3ccc(F)cc3)C=CC1O2 (stereo not drawn) [Compound 273] | ++
COC(=O)C1=C(C(=O)NC2CCOCC2)C2C=CC1(C(Cc1ccccc1)Nc1ccccc1)O2 (stereo not drawn) [Compound 275] | +++

SMILES | SUMO
COC(=O)C1=CC2(C(Cc3ccccc3)N(C)c3ccccc3)C=CC1O2 (stereo not drawn) [Compound 284] | ++
COC(=O)C1=C(C(=O)OC2CCN(C)CC2)C2C=CC1(C(Cc1ccccc1)Nc1ccccc1)O2 (stereo not drawn) [Compound 286] | ++
COC(=O)C1=C(C(=O)NC2CCN(c3ccccc3)CC2)C2C=CC1(C(Cc1ccccc1)Nc1ccccc1)O2 (stereo not drawn) [Compound 290] | +
COC(=O)C1=C(C(=O)Nc2ccc(N3CCN(C)CC3)cc2)C2C=CC1(C(Cc1ccccc1)Nc1ccccc1)O2 (stereo not drawn) [Compound 291] | ++
CNC(=O)C1=C(C(=O)OC)C2(C(Cc3ccccc3)Nc3ccccc3)C=CC1(C)O2 (stereo not drawn) [Compound 293] | ++
COC(=O)C1=C(C(N)=O)C2(C)C=CC1(C(Cc1ccccc1)Nc1ccccc1)O2 (stereo not drawn) [Compound 294] | ++
COC(=O)C1=C(C(=O)NNc2ccccc2)C2(C)C=CC1(C(Cc1ccccc1)Nc1ccccc1)O2 (stereo not drawn) [Compound 295] | ++
COC(=O)C1=C(C(=O)Nc2ccc(Oc3ccccc3)cc2)C2C=CC1(C(Cc1ccccc1)Nc1ccccc1)O2 (stereo not drawn) [Compound 296] | ++
COC(=O)C1=C(C(=O)OC)C2(C(Cc3ccccc3)Nc3ccccc3)CC(O)C1O2 (stereo not drawn) [Compound 302] | ++
COC(=O)C1=C(C(=O)NC2CCN(C)CC2)C2CCC1(C(Cc1ccccc1)Nc1cc(F)cc(F)c1)O2 (stereo not drawn) [Compound 303] | ++
COC(=O)C1=C(C(=O)Nc2ccc(C)c(F)c2)C2C=CC1(C(Cc1ccccc1)Nc1ccc(F)cc1)O2 (stereo not drawn) [Compound 346] | ++
COC(=O)C1=C(C(=O)Nc2ccc(C)c(F)c2)C2C=CC1(C(Cc1ccccc1)Oc1ccccc1)O2 (stereo not drawn) [Compound 347] | ++
CCCCC(Nc1cc(F)cc(F)c1)C12C=CC(O1)C(C(=O)NCCN(C)C)=C2C(=O)OC (stereo not drawn) [Compound 397] | +
CCCCC(Nc1cc(F)cc(F)c1)C12C=CC(O1)C(C(=O)NCCN(CC)CC)=C2C(=O)OC (stereo not drawn) [Compound 398] | +
C=CCC(Nc1ccccc1)C12C=CC(O1)C(C(=O)OC)=C2C(=O)OC (stereo not drawn) [Compound 407] | ++
COC(=O)C1=C(C(=O)OC)C2(C(Nc3ccccc3)c3ccc(CN4CCOCC4)cc3)C=CC1O2 (stereo not drawn) [Compound 413] | +
COC(=O)C1=C(C(=O)OC)C2(C(Cc3ccc(F)cc3)Nc3cc(F)cc(Cl)c3)C=CC1O2 (stereo not drawn) [Compound 451] | +++
COC(=O)C1=C(C(=O)OC)C2(C(Cc3ccccc3F)Nc3cc(F)cc(F)c3)C=CC1O2 (stereo not drawn) [Compound 454] | +++
COC(=O)C1=C(C(=O)Nc2ccc(OC)cc2)C2C=CC1(C(Cc1ccccc1)Oc1ccc(F)cc1)O2 (stereo not drawn) [Compound 479] | ++
COC(=O)C1=C(C(=O)OC)C2(C(Cc3ccccc3)Oc3cccnc3)C=CC1O2 (stereo not drawn) [Compound 482] | +
COC(=O)C1=C(C(=O)Nc2ccc(C)c(F)c2)C2C=CC1(C(Cc1ccccc1)Oc1cccnc1)O2 (stereo not drawn) [Compound 484] | +
